Columns and labels:
[1] = Stability assay under reductive conditions; assay type: physicochemical; conditions: PBS buffer with 1.0 mM L-glutathione, pH 7
[2] = Stability assay in human serum; assay type: in vitro ADME; conditions: male, 37 °C
[3] = Temperature and pH stability assay in phosphate buffers; assay type: physicochemical; conditions: 50 mM phosphate buffer; for half-life at 0.1 mg/mL: phosphate buffer

With `CC[C@H](C)[C@@H]1NC(=O)[C@H](Cc2ccc(O)cc2)NC(=O)[C@@H](N)CSSC[C@@H](C(=O)N2CCC[C@H]2C(=O)N[C@@H](CC(C)C)C(=O)NCC(N)=O)NC(=O)[C@H](CC(N)=O)NC(=O)[C@H](CCC(N)=O)NC1=O` [OXT, oxytocin] the half-life at 9.9 µM [1] was 8 h, the half-life at 0.45 mM [2] was 28.8 h and the half-life ([3]; pH 2.0, 40 °C) was 14 ± 0.9 days. For the same molecule, the half-life ([3]; pH 4.5, 40 °C) was 121 ± 6.2 days, the half-life at 0.1 mg/mL ([3]; pH 2, half-life, pH 2.0, 55 °C) was 76.8 h and the half-life at 0.1 mg/mL ([3]; pH 4.5, half-life, pH 4.5, 55 °C) was 432 h. It also gave a half-life at 0.1 mg/mL ([3]; pH 7, half-life, pH 7.0, 40 °C) of 173 h, a half-life at 0.1 mg/mL ([3]; pH 7, half-life, pH 7.0, 55 °C) of 48 h and a half-life at 0.1 mg/mL ([3]; pH 9, half-life, pH 9.0, 40 °C) of 93.6 h. It also gave a half-life at 0.1 mg/mL ([3]; pH 9, half-life, pH 9.0, 55 °C) of 21.6 h.
